Test results: US20250353864A1, “INDAZOLE CONTAINING MACROCYCLES AND THEIR USE” (BLOSSOMHILL THERAPEUTICS, INC., priority 2022, published 2025)

Columns and labels:
Assay type in all cases: biochemical
EGFR WT = EGFR WT (Homo sapiens (Human), UniProt P00533); test: HotSpot radiometric kinase assay (Reaction Biology), EGFR WT; conditions: 10 μM ATP
How it was run: (§1)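 Radiometric filter-binding read-out: incorporated 33P was retained on P81 ion-exchange paper after washing away unbound phosphate. Reactions ran 120 min at room temperature with 10 μM final ATP, following ~20 min compound preincubation in Hepes pH 7.5 buffer containing 1% DMSO. IC50 from fitted curves.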

EGFR (D770_N771insNPG) = EGFR (D770_N771insNPG) (Homo sapiens (Human), UniProt P00533, INS770NPG); test: HotSpot radiometric kinase assay, EGFR (D770_N771insNPG); conditions: 10 μM ATP, read-out: EGFR (Δ770_N771insNPG) IC50
How it was run: as §1

EGFR Δ746-750 mutant = EGFR Δ746-750 mutant (Homo sapiens (Human), UniProt P00533, DEL746-750); test: HotSpot radiometric kinase assay, EGFR Δ746-750 mutant; conditions: 10 μM ATP
How it was run: as §1

[1] = biological target: EGFR Δ746-750/C797S mutant (Homo sapiens (Human), UniProt P00533, C797S/DEL746-750); test: HotSpot radiometric kinase assay, EGFR Δ746-750/C797S mutant; conditions: 10 μM ATP
How it was run: as §1

EGFR L858R mutant = EGFR L858R mutant (Homo sapiens (Human), UniProt P00533, L858R); test: HotSpot radiometric kinase assay, EGFR L858R mutant; conditions: 10 μM ATP
How it was run: as §1

EGFR L858R/T790M mutant = EGFR L858R/T790M mutant (Homo sapiens (Human), UniProt P00533, L858R/T790M); test: HotSpot radiometric kinase assay, EGFR L858R/T790M mutant; conditions: 10 μM ATP
How it was run: as §1

[2] = biological target: EGFR L858R/T790M/C797S mutant (Homo sapiens (Human), UniProt P00533, C797S/L858R/T790M); test: HotSpot radiometric kinase assay, EGFR L858R/T790M/C797S mutant; conditions: 10 μM ATP
How it was run: as §1

CLK1 = CLK1 (Homo sapiens (Human), UniProt P49759); test: Inhibition of CLK1 kinase activity evaluated at Nanosyn (ADP-Glo); conditions: ADP-Glo luminescence
Procedure: (§2) Inhibition of CLK, CLK2, CLK3 and CLK4 Kinase Activity Evaluated at Nanosyn
(§3) Kinase protein and substrate were pre-diluted in the HEPES assay buffer (100 mM HEPES, pH 7.5, 0.01% Triton X-100, 0.1% BSA, 5 mM MgCl2, […] DTT, 10 Sodium Orthovanadate, […] Beta-Glycerophosphate) dispensed into 384 well plate (5 μL per well). Control samples (0%-inhibition in the absence of inhibitor, DMSO only) and 100%-inhibition (in the absence of enzyme) were assembled in replicates of six and were used to calculate %-inhibition in the presence of compounds. Test compounds were added to the protein samples by acoustic dispensing (Labcyte Echo550). Concentration of DMSO was equalized to 1% in all samples. Reactions were initiated by addition of ATP by acoustic dispensing (Labcyte Echo550) and incubated according to assay specific incubation time. After incubation. 5 μL of Promega ADP-Glo reagent was added and incubated for 40 minutes. After 40 minutes, 10 uL of Promega kinase detection reagent was added. After 10 min of incubation with Kinase detection reagent, the luminescence was read on microplate reader (Biotek Synergy).

CLK2 = CLK2 (Homo sapiens (Human), UniProt P49760); test: Inhibition of CLK2 kinase activity evaluated at Nanosyn (ADP-Glo); conditions: ADP-Glo luminescence
Procedure: as §2, §3

CLK3 = CLK3 (Homo sapiens (Human), UniProt P49761); test: Inhibition of CLK3 kinase activity evaluated at Nanosyn (ADP-Glo); conditions: ADP-Glo luminescence
Procedure: as §2, §3

CLK4 = CLK4 (Homo sapiens (Human), UniProt Q9HAZ1); test: Inhibition of CLK4 kinase activity evaluated at Nanosyn (ADP-Glo); conditions: ADP-Glo luminescence
Procedure: as §2, §3

Chain of EGFR L858R mutant (P00533 25-1210 L858R): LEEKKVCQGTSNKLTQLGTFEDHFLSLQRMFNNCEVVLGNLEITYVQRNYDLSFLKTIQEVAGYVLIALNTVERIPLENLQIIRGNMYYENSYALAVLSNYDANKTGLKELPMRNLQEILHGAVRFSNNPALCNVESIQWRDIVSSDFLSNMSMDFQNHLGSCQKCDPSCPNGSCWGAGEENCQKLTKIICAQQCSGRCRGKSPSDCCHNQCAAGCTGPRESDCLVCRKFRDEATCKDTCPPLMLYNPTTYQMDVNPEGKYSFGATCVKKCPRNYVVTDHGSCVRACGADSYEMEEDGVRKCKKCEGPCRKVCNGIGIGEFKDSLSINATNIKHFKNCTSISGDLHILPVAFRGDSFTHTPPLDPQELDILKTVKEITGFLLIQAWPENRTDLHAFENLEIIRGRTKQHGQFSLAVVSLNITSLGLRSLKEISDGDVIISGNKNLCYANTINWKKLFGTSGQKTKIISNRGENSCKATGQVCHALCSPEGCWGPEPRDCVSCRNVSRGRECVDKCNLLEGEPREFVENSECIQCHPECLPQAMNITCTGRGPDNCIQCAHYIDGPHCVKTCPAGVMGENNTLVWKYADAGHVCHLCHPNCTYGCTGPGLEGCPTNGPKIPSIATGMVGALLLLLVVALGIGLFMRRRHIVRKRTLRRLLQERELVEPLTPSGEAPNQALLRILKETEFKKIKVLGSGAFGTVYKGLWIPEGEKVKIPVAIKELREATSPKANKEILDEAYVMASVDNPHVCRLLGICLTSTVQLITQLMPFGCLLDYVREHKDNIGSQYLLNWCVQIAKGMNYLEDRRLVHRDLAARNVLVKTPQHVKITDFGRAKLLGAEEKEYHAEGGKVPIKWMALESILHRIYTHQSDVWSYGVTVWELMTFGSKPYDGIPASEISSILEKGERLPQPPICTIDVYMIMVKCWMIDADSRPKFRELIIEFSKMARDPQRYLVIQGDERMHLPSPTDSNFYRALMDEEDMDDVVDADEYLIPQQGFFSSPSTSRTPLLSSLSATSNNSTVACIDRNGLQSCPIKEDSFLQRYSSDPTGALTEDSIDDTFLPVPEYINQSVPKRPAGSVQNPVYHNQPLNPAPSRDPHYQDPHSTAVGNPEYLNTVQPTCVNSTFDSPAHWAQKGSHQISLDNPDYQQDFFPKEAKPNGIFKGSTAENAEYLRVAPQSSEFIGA
Chain of CLK4 (Q9HAZ1 whole entry): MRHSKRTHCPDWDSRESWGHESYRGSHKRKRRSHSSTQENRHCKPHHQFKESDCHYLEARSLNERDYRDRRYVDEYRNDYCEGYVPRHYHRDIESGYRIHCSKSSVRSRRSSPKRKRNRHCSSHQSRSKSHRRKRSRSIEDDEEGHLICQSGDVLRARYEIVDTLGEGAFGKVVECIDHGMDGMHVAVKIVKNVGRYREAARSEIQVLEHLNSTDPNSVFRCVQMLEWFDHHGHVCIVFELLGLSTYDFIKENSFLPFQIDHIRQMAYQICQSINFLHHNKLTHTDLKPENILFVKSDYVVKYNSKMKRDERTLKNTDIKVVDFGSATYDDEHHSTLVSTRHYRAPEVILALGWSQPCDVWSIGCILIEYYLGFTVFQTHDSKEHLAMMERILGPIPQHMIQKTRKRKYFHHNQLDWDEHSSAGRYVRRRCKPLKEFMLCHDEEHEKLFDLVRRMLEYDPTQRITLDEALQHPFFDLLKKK
Chain of EGFR Δ746-750 mutant (P00533 other isoform, or with tags, fused parts or gaps del 1-668/del 746-750 limits assumed): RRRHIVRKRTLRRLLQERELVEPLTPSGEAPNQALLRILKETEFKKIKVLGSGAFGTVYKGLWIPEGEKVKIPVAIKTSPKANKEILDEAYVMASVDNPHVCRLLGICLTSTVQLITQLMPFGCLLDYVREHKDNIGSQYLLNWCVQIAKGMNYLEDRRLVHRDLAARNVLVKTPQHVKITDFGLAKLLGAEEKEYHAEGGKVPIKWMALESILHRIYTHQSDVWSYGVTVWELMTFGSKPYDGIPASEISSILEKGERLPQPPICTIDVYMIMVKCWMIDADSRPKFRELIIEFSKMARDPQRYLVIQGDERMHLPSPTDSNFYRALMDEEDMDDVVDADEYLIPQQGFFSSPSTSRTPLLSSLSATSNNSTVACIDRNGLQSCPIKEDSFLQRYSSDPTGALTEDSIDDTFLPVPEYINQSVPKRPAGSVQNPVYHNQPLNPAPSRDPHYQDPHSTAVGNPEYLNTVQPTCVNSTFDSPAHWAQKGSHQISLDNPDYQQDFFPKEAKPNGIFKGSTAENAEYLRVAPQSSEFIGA
Chain of EGFR L858R/T790M mutant (P00533 25-1210 T790M/L858R): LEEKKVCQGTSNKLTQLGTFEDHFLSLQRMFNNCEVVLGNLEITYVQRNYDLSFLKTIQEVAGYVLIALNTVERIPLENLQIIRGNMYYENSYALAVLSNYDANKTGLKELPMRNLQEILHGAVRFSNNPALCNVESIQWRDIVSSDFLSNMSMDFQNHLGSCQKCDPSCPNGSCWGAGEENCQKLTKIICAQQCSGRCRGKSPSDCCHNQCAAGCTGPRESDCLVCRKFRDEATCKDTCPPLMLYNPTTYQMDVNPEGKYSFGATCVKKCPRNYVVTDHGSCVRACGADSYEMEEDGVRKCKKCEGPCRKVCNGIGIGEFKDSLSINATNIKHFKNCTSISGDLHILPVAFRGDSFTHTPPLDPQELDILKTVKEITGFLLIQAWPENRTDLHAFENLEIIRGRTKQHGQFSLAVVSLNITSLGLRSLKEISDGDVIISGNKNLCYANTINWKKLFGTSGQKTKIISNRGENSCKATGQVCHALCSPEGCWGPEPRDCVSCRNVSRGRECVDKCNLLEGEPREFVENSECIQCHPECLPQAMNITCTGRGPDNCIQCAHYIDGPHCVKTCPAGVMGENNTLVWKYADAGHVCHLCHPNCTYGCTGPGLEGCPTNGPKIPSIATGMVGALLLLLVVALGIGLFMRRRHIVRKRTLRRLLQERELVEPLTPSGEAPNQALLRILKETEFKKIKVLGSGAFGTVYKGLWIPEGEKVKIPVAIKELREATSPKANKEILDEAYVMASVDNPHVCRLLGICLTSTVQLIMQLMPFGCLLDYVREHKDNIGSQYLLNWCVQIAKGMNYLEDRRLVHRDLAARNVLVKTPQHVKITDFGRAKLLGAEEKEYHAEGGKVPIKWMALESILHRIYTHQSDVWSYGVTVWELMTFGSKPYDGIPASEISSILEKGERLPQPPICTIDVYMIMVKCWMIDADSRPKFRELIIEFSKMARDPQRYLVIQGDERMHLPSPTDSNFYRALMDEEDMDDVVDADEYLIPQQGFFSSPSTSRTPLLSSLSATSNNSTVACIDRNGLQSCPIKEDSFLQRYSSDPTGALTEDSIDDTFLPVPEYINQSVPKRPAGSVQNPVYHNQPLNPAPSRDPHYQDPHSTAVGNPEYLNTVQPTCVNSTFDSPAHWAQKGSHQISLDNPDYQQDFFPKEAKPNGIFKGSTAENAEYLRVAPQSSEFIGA
Chain of CLK1 (P49759 whole entry): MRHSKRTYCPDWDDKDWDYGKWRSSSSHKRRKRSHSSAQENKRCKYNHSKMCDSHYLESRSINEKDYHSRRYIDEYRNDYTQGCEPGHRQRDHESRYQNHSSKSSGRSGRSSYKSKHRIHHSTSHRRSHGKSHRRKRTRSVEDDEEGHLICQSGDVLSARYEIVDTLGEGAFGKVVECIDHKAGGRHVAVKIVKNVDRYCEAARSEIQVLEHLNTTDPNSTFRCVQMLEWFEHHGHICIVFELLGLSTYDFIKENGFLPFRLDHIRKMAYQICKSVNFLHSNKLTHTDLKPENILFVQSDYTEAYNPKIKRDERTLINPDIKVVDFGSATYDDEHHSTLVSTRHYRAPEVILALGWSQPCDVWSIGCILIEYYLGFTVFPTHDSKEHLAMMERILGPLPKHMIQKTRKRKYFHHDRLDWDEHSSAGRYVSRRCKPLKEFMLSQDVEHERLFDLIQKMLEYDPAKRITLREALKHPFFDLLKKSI
Chain of EGFR L858R/T790M/C797S mutant (P00533 25-1210 T790M/C797S/L858R): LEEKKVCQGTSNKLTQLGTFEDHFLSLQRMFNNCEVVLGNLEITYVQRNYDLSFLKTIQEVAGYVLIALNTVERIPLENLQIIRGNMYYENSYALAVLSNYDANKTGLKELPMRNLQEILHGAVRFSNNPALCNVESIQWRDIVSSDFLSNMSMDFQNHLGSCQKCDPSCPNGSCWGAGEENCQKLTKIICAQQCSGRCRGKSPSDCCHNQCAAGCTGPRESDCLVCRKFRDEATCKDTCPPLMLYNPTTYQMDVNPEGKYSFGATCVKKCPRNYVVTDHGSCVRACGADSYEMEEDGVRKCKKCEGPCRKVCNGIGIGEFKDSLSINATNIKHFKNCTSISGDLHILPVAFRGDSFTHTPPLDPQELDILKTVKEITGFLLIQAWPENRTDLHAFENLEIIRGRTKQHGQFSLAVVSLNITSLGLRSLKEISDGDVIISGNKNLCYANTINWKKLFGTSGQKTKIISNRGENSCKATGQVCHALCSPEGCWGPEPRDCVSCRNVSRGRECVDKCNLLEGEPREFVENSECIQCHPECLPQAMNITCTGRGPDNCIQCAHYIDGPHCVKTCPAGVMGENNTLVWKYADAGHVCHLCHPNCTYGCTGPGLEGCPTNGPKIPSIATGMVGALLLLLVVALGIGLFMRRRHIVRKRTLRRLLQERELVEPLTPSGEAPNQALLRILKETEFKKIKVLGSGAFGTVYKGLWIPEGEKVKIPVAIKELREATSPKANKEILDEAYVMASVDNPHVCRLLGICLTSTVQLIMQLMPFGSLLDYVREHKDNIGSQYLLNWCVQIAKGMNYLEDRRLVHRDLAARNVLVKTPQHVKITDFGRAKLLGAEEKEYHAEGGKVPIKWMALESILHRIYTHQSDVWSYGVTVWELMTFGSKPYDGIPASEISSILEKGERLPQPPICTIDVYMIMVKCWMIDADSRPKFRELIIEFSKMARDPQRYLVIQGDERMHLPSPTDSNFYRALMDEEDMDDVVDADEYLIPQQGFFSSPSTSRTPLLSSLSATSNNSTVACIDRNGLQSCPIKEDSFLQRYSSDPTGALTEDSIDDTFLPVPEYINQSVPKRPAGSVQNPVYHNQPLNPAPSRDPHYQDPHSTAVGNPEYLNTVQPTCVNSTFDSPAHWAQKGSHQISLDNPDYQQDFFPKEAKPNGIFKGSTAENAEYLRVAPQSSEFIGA

IC50 (EGFR WT) [nM] | IC50 (EGFR (D770_N771insNPG)) [nM] | IC50 (EGFR Δ746-750 mutant) [nM] | IC50 [1] [nM] | IC50 (EGFR L858R mutant) [nM] | IC50 (EGFR L858R/T790M mutant) [nM] | IC50 [2] [nM] | IC50 (CLK1) [nM] | IC50 (CLK2) [nM] | IC50 (CLK3) [nM] | IC50 (CLK4) [nM] | Compound
8.81 | 24.5 | 1.88 | 1.93 | 1.47 | 0.41 | 0.7 | 0.21 | 0.05 | 168 | 0.55 | Cc1nn(C)c2c1/C=C/c1n[nH]c3ccc(cc13)-c1cnn(C)c1O[C@@H](C)CN(C)[C@@H]2C (single isomer, unassigned) [Example 144]
1.43 | 4.05 | 0.95 | 1.98 | 1.18 | 3.01 | 6.62 | 0.82 | 0.27 | 9.89 | 1.6 | CC(C)Oc1nn(CCO)c2c1/C=C/c1n[nH]c3cc(F)c(cc13)-c1cnn(C)c1O[C@H](C)[C@H]1CCCN1C2 (single isomer, unassigned) [Example 255]
22.2 | 232 | 6.9 | 5.25 | 8.73 | 4.35 | 19.3 | 1.08 | 2.38 | 61.8 | 1.56 | CCOc1nn(C)c2c1/C=C/c1n[nH]c3cc(F)c(cc13)-c1cnn(C)c1OC1CCCN(C2)C1 (stereo in doubt) [Example 178]
> 1000 | 2120 | 898 | – | 687 | – | 202 | 0.2 | 0.08 | 45.2 | 0.48 | Cc1c2c(nn1C)OCCOCc1c(cnn1C)-c1ccc3[nH]nc(c3c1)/C=C/2 [Ex. 7, (17E)-8,15,16-trimethyl-2,8,9,11,12,15-hexahydro-3,5-etheno[1,4]dioxacyclopentadecino[11,10-c:15,14-c′:6,7-c″]tripyrazole]
– | – | – | – | – | – | – | 0.24 | 0.19 | 148 | 0.56 | CC(=O)N1CCOc2c(cnn2C)-c2ccc3[nH]nc(c3c2)/C=C/c2c(nn(C)c2C)C1 [Example 52, 1-[(17E)-8,15,16-trimethyl-2,8,10,11,13,15-hexahydro-12H-3,5-ethenotripyrazolo[3,4-f:3′,4′-j:4″,3″- n][1,4]oxazacyclopentadecin-12-yl]ethan-1-one]
101 | 78.3 | 33.4 | 8.93 | 35.2 | – | 4.1 | 0.09 | 0.13 | 185 | 0.58 | Cc1nn(C)c2c1/C=C/c1n[nH]c3ccc(cc13)-c1cnn(C)c1CN(C)CCO2 [Example 55, (17E)-8,10,14,16-tetramethyl-2,9,10,11,12,14-hexahydro-8H-3,5-ethenotripyrazolo[3,4-f:4′,3′-j:4″,3″- n][1,4]oxazacyclopentadecine]
– | – | – | – | – | – | – | 0.11 | 0.03 | 41.9 | 0.13 | Cc1noc2c1/C=C/c1n[nH]c3ccc(cc13)-c1cnn(C)c1O[C@@H](C)CN(C)C2 [Example 141, (10S,17E)-8,10,12,16-tetramethyl-2,8,10,11,12,13-hexahydro-3,5-etheno[1,2]oxazolo[5,4-f]dipyrazolo[3,4-j:4′,3′-n][1,4]oxazacyclopentadecine]
– | – | – | – | – | – | – | 0.14 | 0.4 | 664 | 0.31 | Cc1snc2c1/C=C/c1n[nH]c3ccc(cc13)-c1cnn(C)c1O[C@@H](C)CN(C)C2 [Example 158, (10S,17E)-8,10,12,16-tetramethyl-2,8,10,11,12,13-hexahydro-3,5-ethenodipyrazolo[3,4-j:4′,3′-n][1,2]thiazolo[3,4-f][1,4]oxazacyclopentadecine]
– | – | – | – | – | – | – | 0.59 | 0.13 | 220 | 1.53 | C[C@H]1CN(C)Cc2c(c(C#N)nn2CCO)/C=C/c2n[nH]c3ccc(cc23)-c2cnn(C)c2O1 [Example 208, (10S,17E)-14-(2-hydroxyethyl)-8,10,12-trimethyl-2,10,11,12,13,14-hexahydro-8H-3,5-ethenotripyrazolo[3,4-f:3′,4′-j:4″,3″-n][1,4]oxazacyclopentadecine-16-carbonitrile]
– | – | – | – | – | – | – | 0.69 | 1.16 | 253 | 1.46 | CC(C)Oc1nn(CCO)c2c1/C=C/c1n[nH]c3ccc(cc13)-c1cnn(C)c1O[C@@H](C)CN(C)[C@H]2C [Example 224, 2-{(10S,13S,17E)-8,10,12,13-tetramethyl-16-[(propan-2-yl)oxy]-2,8,10,11,12,13-hexahydro-14H-3,5-ethenotripyrazolo[3,4-f:3′,4′-j:4″,3″-n][1,4]oxazacyclopentadecin-14-yl}ethan-1-ol]
– | – | – | – | – | – | – | 69.4 | 102 | 1000 | 38.1 | CCOc1nn(CCO)c2c1/C=C/c1n[nH]c3ccc(cc13)-c1c(C#N)nn(C)c1O[C@@H](C)CN(CC)C2 [Example 290, (10S,17E)-16-ethoxy-12-ethyl-14-(2-hydroxyethyl)-8,10-dimethyl-2,10,11,12,13,14-hexahydro-8H-3,5-ethenotripyrazolo[3,4-f:3′,4′-j:4″,3″-n][1,4]oxazacyclopentadecine-6-carbonitrile]
– | – | – | – | – | – | – | 1.01 | 4.87 | 1000 | 1.36 | C#Cc1nn(C)c2c1-c1ccc3[nH]nc(c3c1)/C=C/c1c(OCC)nn(CCO)c1CN(C)C[C@H](C)O2 [Example 292, 2-[(10S,17E)-16-ethoxy-6-ethynyl-8,10,12-trimethyl-2,8,10,11,12,13-hexahydro-14H-3,5-ethenotripyrazolo[3,4-f:3′,4′-j:4″,3″-n][1,4]oxazacyclopentadecin-14-yl]ethan-1-ol]
– | – | – | – | – | – | – | 1.27 | 3.25 | 1000 | 1.37 | CCOc1c2c(nn1C)CN(C(C)=O)CCOc1c(cnn1C)-c1ccc3[nH]nc(c3c1)/C=C/2 [Example 294, 1-[(17E)-16-ethoxy-8,15-dimethyl-2,8,10,11,13,15-hexahydro-12H-3,5-ethenotripyrazolo[3,4-f:3′,4′-j:4″,3″- n][1,4]oxazacyclopentadecin-12-yl]ethan-1-one]
– | – | – | – | – | – | – | 0.64 | 0.78 | 13.8 | 1.12 | CCNc1nn(CCO)c2c1/C=C/c1n[nH]c3ccc(cc13)-c1cnn(C)c1O[C@@H](C)CN(C)C2 [Example 295, 2-[(10S,17E)-16-(ethylamino)-8,10,12-trimethyl-2,8,10,11,12,13-hexahydro-14H-3,5-ethenotripyrazolo[3,4-f:3′,4′-j:4″,3″-n][1,4]oxazacyclopentadecin-14-yl]ethan-1-ol]
– | – | – | – | – | – | – | 1.2 | 1.15 | 33.4 | 1.57 | CCN1Cc2c(c(OC(C)C)nn2C[C@H](C)O)/C=C/c2n[nH]c3cc(F)c(cc23)-c2cnn(C)c2O[C@@H](C)C1 [Example 296, (2S)-1-{(10S,17E)-12-ethyl-19-fluoro-8,10-dimethyl-16-[(propan-2-yl)oxy]-2,8,10,11,12,13-hexahydro-14H-3,5-ethenotripyrazolo[3,4-f:3′,4′-j:4″,3″-n][1,4]oxazacyclopentadecin-14-yl}propan-2-ol]
